Results reported in patent US9789200B2, “Therapeutic use of new pharmaceutical preparations containing antitumoral drugs bound to hyaluronic acid in the treatment of neoplasias” (FIDIA FARMACEUTICI S.P.A., priority 2008, dated 2017).
Converted amounts (≈) assume the structure as drawn.

Experiments:
[1] = test system: Adenocarcinoma cells of the colon of a rat DHD/K12/Trb; test: cell vitality, Tripan blue exclusion method; type: cell-based; settings: 24 h of treatment, ONCOFID-S derivatized at 3.5% w/w (Example 2)
Text: Adenocarcinoma cells of the colon of a rat DHD/K12/Trb expressing the receptor for HA CD44
Adenocarcinoma cells of the colon of a rat DHD/K12/Trb.

[2] = test system: DHD/Trb cells; test: fluorescence microscopy of intracellular distribution/expression of E-cadherin, β-catenin, APC, GSK-3β and CK20; type: cell-based, rat; settings: non-conjugated SN38
Text: Due to the importance of the role of regulating the β-catenin in the formation and progression of colon-rectal carcinomas, it was verified whether the treatment with Oncofid-S is capable of modifying the intracellular expression and distribution of the molecules involved in the control process of the above protein, as previously described. The effect of the treatment with ONCOFID-S on the intracellular distribution of E-cadherin, β-catenin, APC e GSK-3β in the DHD/Trb cells was therefore analyzed by means of fluorescence microscopy. Specific antibodies were used for the above proteins, visualizing them with the use of secondary antibodies bound to fluorochromes such as rodamin and fluoroescein.

[3] = test system: Adenocarcinoma cells of the colon of a rat DHD/K12/Trb; test: cytofluorometric analysis of cell phases (DNA content, propidium iodide) and wash out test; type: cell-based; settings: 0.5 μg/ml, 24 h of treatment; ONCOFID-S 3.5% w/w
Procedure: Adenocarcinoma cells of the colon of a rat DHD/K12/Trb
As described for examples 8 and 9.
The effect of the ONCOFID-S conjugate (at a concentration of 0.5 μg/ml) was determined using an analysis of the cytofluorometric type; after 24 h of pharmacological treatment, the cell phases are identified with FACS-Scan (Becton Dickinson) by cytofluorometric, analysis of the DNA content after colouring the cells with propidium iodide.
In order to evaluate whether the data obtained persist with time, the Wash out test was effected in which, after 48 h of treatment, the culture medium is substituted with fresh medium without treatment: the cell phases were then defined again at the point defined as TO and, after 24 h of culture, T24.

[4] = test system: DHD/K12/Trb peritoneal carcinomatosis; test: anti-tumoral effect in vivo, peritoneal carcinomatosis and tumoral ascites induced by DHD/K12/Trb in BDIX rats; design: species or system rat; settings: 40 mg/kg intraperitoneally
Procedure: Animals treated: 36 male rats BDIX 7 weeks' old (about 200 g) were divided according to experimental criteria into the following groups (each group consists of 12 animals):
1. Control Group: inoculum DHD/K12/trb.
2. CPT-11 Group: inoculum DHD/K12/trb+treatment CTP-11 40 mg/Kg intraperitoneally.
After 14 days of stabling, 1×10^6 DHD/K12/trb cells per rat were inoculated intraperitoneally. After 7 days the therapeutic treatment envisaged was initiated, consisting of 4 therapy cycles. The sacrifice of the animals was established 7 days after the last pharmacological treatment. The animals were evaluated once a week for the appearance of possible signs of toxicity, by measuring the body weight, and for the possible appearance of ascites. At the moment of sacrifice an intracardiac sampling was effected in all the animals and the haematological toxicity due to the pharmacological treatment was evaluated. The tumours and ascites were removed and measured. The tissues removed were fixed in formalin for histological and immunohistochemical evaluation.

Compound	IC50 [1]	modifications relating to cell differentiation (APC/GSK-3β, β-catenin, E-cadherin, CK20) [2]	gap1 and S phases of the cell cycle [3]	animals with bloody ascites [4]	average reduction in the tumoral mass ([4]; vs control)
CCc1c2c(nc3ccc(O)cc13)-c1cc3c(c(=O)n1C2)COC(=O)[C@]3(O)CC [SN38]	1.4 µg/mL (≈ 3.57 µM)	not revealed	increases both the first phase and the S phase	–	–
CCc1c2c(nc3ccc(OC(=O)N4CCC(N5CCCCC5)CC4)cc13)-c1cc3c(c(=O)n1C2)COC(=O)[C@]3(O)CC [CPT-11, Irinotecan]	–	–	–	83%	62%
